Data taken from PubChem BioAssay (NCI).
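Assay format: 96-well plates, 48-hour exposure. GI50: concentration for 50% inhibition of growth. Definition used: TGI = concentration required for complete inhibition of growth.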

Experiments:
Experiment in all cases: NCI-60 cell line screen, 48 h
[1] = test system: A498 renal
[2] = test system: EKVX NSCLC
[3] = test system: MALME-3M melanoma
[4] = test system: MDA-MB-231 breast
[5] = test system: OVCAR-3 ovarian
[6] = test system: OVCAR-4 ovarian
[7] = test system: OVCAR-5 ovarian
[8] = test system: OVCAR-8 ovarian
[9] = test system: SW-620 colon
[10] = test system: UACC-62 melanoma

Compound: CCCCCC(=O)OC[n+]1ccc(-c2c(COC(=O)NC(C)C)c(COC(=O)NC(C)C)c3n2CCC3)cc1
- TGI [1]: > 100 µM
- TGI [2]: > 100 µM
- TGI [3]: > 100 µM
- TGI [4]: > 100 µM
- TGI [5]: > 100 µM
- TGI [6]: > 100 µM
- TGI [7]: > 100 µM
- TGI [8]: > 100 µM
- TGI [9]: > 100 µM
- TGI [10]: > 100 µM

Compound: CCOc1ccc(-n2cc(-c3ccc(N(C)C)cc3)[n+]3c2CCCCC3)cc1
- GI50 [1]: 1.22 µM
- TGI [1]: 8.44 µM
- GI50 [2]: 0.244 µM
- TGI [2]: > 100 µM
- GI50 [3]: 0.269 µM
- TGI [3]: 14.1 µM
- GI50 [4]: 1.93 µM
- TGI [4]: > 27.8 µM
- GI50 [5]: 0.377 µM
- TGI [5]: 60.2 µM
- GI50 [6]: 0.103 µM
- TGI [6]: > 100 µM
- GI50 [7]: 3.74 µM
- TGI [7]: > 100 µM
- GI50 [8]: 1.34 µM
- TGI [8]: > 100 µM
- GI50 [9]: 2.21 µM
- TGI [9]: > 100 µM
- GI50 [10]: 0.199 µM
- TGI [10]: 13.5 µM

Compound: c1ccc2c(c1)-c1nc3ccccc3cc1C2N1CCOCC1 (stereo unspecified)
- TGI [1]: > 100 µM
- TGI [2]: > 100 µM
- TGI [3]: > 100 µM
- TGI [4]: > 100 µM
- TGI [5]: > 100 µM
- TGI [6]: > 100 µM
- TGI [7]: > 100 µM
- TGI [8]: > 100 µM
- TGI [9]: > 100 µM
- TGI [10]: > 100 µM

Compound: COc1ccc(/C=N/C2=C(C#N)C(c3ccccc3)c3ccc4ccccc4c3O2)cc1 (stereo unspecified)
- GI50 [1]: 0.213 µM
- TGI [1]: 0.785 µM
- TGI [2]: > 100 µM
- TGI [3]: > 100 µM
- GI50 [4]: 0.522 µM
- TGI [4]: 8.39 µM
- GI50 [5]: 0.343 µM
- TGI [5]: > 100 µM
- GI50 [6]: 0.645 µM
- TGI [6]: > 100 µM
- GI50 [7]: 0.885 µM
- TGI [7]: > 100 µM
- GI50 [8]: 0.486 µM
- TGI [8]: > 100 µM
- GI50 [9]: 0.316 µM
- TGI [9]: > 100 µM
- GI50 [10]: 0.491 µM
- TGI [10]: > 100 µM

Compound: COc1ccc(/C=C/c2cnnc3ccccc23)cc1OC
- TGI [1]: > 10 µM
- TGI [2]: > 10 µM
- TGI [3]: > 10 µM
- TGI [4]: > 10 µM
- TGI [5]: > 10 µM
- TGI [6]: > 10 µM
- TGI [7]: > 10 µM
- TGI [8]: > 10 µM
- TGI [9]: > 10 µM
- TGI [10]: > 10 µM

Compound: COc1cc2c(cc1OC)-c1c(c3ccc([N+](=O)[O-])cc3c(=O)n1CCCBr)C2=O
- GI50 [1]: 43.6 µM
- TGI [1]: > 100 µM
- GI50 [2]: > 100 µM
- TGI [2]: > 100 µM
- GI50 [3]: 9.72 µM
- TGI [3]: 81.1 µM
- GI50 [4]: 96.4 µM
- TGI [4]: > 100 µM
- GI50 [5]: 71.1 µM
- TGI [5]: > 100 µM
- GI50 [6]: 34.1 µM
- TGI [6]: > 100 µM
- GI50 [7]: > 100 µM
- TGI [7]: > 100 µM
- GI50 [8]: 38.5 µM
- TGI [8]: > 100 µM
- GI50 [9]: 21.8 µM
- TGI [9]: > 100 µM
- GI50 [10]: 2.83 µM
- TGI [10]: 75.4 µM

Compound: COc1ccc2c(c1)cn1c3ccc(OC)cc3[nH]c(=O)c21
- GI50 [1]: < 0.0258 µM
- GI50 [2]: < 0.0256 µM
- TGI [2]: 1.76 µM
- TGI [3]: 2.75 µM
- GI50 [4]: < 0.0188 µM
- TGI [4]: 0.27 µM
- GI50 [5]: < 0.0152 µM
- TGI [5]: < 0.024 µM
- GI50 [6]: 0.0382 µM
- TGI [6]: 4.92 µM
- GI50 [7]: < 0.0232 µM
- TGI [7]: 1.81 µM
- GI50 [8]: < 0.0214 µM
- TGI [8]: 1.46 µM
- GI50 [9]: < 0.0147 µM
- TGI [9]: 1.36 µM
- GI50 [10]: < 0.0174 µM
- TGI [10]: 1.39 µM

Compound: COc1cc(Nc2nccc(-c3cnn4ncccc34)n2)cc(OC)c1
- GI50 [1]: 0.0576 µM
- TGI [1]: 0.183 µM
- GI50 [2]: 0.113 µM
- TGI [2]: 4.96 µM
- GI50 [3]: 0.132 µM
- TGI [3]: 1.26 µM
- GI50 [4]: 0.0751 µM
- TGI [4]: > 11.9 µM
- GI50 [5]: 0.0509 µM
- TGI [5]: 0.822 µM
- GI50 [6]: 0.268 µM
- TGI [6]: 1.35 µM
- GI50 [7]: 0.0759 µM
- TGI [7]: 1.9 µM
- GI50 [8]: 0.0802 µM
- TGI [8]: > 12.7 µM
- GI50 [9]: 0.0758 µM
- TGI [9]: 4.78 µM
- GI50 [10]: 0.0532 µM
- TGI [10]: 0.223 µM
